What all share (type): in vivo
Assay [1] deals with houseflies (Musca domestica). Description: Synergistic action on houseflies, dip experiment. Conditions: single substance; active ingredient concentration in %. As for the experimental part:
Synergistic action on houseflies (Musca domestica; dip experiment)
100 ml of aqueous active ingredient formulations (active ingredient concentration in %) is poured over 20 adult houseflies (Musca domestica) on a filter in a nutsch (15 cm in diameter). A gauze lid prevents the animals from surfacing during treatment. After 5 seconds the formulation is filtered off and the flies are transferred to clean Petri dishes (10 cm in diameter) on the bottom of which a round filter paper has been placed.
The animals in supine position are counted after 4 and 24 hours.

Assay [2] deals with oriental cockroaches (Blatta orientalis). Description: Synergistic action on oriental cockroaches, treated jar bottom. Conditions: single substance; kill rate after 48 hours. On the procedure:
Synergistic action on oriental cockroaches (Blatta orientalis)
After the solvent has evaporated, 5 adult cockroaches (Blatta orientalis) are placed in each jar, and the kill rate is determined after 48 hours.
The application rates are in logarithmic progression and permit a dose-effect curve to be drawn; the LD50 is determined graphically and serves as a basis for assessment.

Assay [3] relates to houseflies (Musca domestica). Description: Synergistic action on houseflies; continuous contact (Petri dish). Conditions: single substance; kill rate after 4 hours. As for the experimental part: Synergistic action on houseflies (Musca domestica); continuous contact
Both covers and bottoms of Petri dishes 10 cm in diameter are lined with a total per dish of 2 ml of acetonic solutions of the active ingredients. After the solvent has evaporated (about 30 mins.), 10 flies are introduced into each dish.
The kill rate is determined after 4 hours and the LD50 is determined graphically.

Assay [4] deals with granery weevils (Sitophilus granarius). The assay can be described thus: Synergistic action on granary weevils (treated Petri dishes). Conditions: single substance; 4 hours exposure, kill rate after 24 hours. On the procedure: Synergistic action on granery weevils (Sitophilus granarius)
Petri dishes 10 cm in diameter are lined with acetonic solutions of the active ingredients. After the solvent has evaporated, 50 granary weevils are placed in each dish.
After 4 hours, the weevils are transferred to untreated vessels. The kill rate is determined after 24 hours, by counting how many weevils are, after this period has elapsed, capable of leaving an untreated cardboard dish (40 mm in diameter, 10 mm high) within 60 minutes.

Assay [5] has as its system houseflies (Musca domestica). Description: Contact action on houseflies (application to ventral abdomen). To be noted: single substance; kill rate after 4 hours. On the procedure:
Contact action on houseflies (Musca domestica)
1 μl of the active ingredient dissolved in acetone is administered to the ventral abdomen of 4-day old imagoes under slight CO2 narcosis. 20 animals treated in the same way are then placed in a cellophane bag having a volume of approximately 500 ml.
After 4 hours the kill rate is determined, a dose-mortality curve is drawn from the different concentrations, and the LD50 is worked out.

Several values for one entry are separate records, joined by “and”; a condition that tells them apart may be missing. Identical values can stand only once.

Consider `ClC(Cn1cncn1)c1ccccc1` (centres unmarked) [No. 2], for which, in assay [1], the “LD 50 after 4 hours” value is greater than 0.2% and the “LD 50 after 24 hours” value stood at 0.1%. In addition, the “LD 50” value in assay [2] is listed as greater than 5.0 mg. For the same compound, the “LD 50” value in assay [3] is listed as 0.2 mg.

Consider `C=C(Cn1cncn1)c1ccccc1` [No. 8], for which the results for the “LD 50” value in assay [2] and in assay [4] were 9.0 mg and greater than 2 mg, respectively.

Consider `CCOC(=O)CC(SP(=S)(OC)OC)C(=O)OCC` (centres unmarked) [Malathion, reference compound], for which, in assay [2], the “LD 50” value worked out at 0.12 mg.

Take `C(=Cc1ccccc1)Cn1cncn1` [No. 6]: in assay [1], the “LD 50 after 4 hours” value was greater than 0.2% and the “LD 50 after 24 hours” value is given as 0.07%. The “LD 50” value in assay [2] was 9.0 mg. For the same compound, the “LD 50” value in assay [4] is given as greater than 2 mg.

On to `CC(C)(C)c1ccc(Cn2cncn2)cc1` [No. 11], for which the “LD 50” value in assay [2] is greater than 10.0 mg; in assay [4], greater than 2 mg.

For the compound `Cc1nc(N(C)C)nc(OC(=O)N(C)C)c1C` [Pirimicarb, 2-dimethylamino-5,6-dimethyl-4-pyrimidinyl-N,N-dimethylcarbamate, reference compound], in assay [1], the “LD 50 after 4 hours” value came out at 0.05% and the “LD 50 after 24 hours” value stood at 0.04%. Also, the “LD 50” value in assay [2] is recorded as greater than 30 mg.

Turning to `Fc1ccc(C=Cn2cncn2)cc1` [No. 4], the “LD 50” value is greater than 5.0 mg in assay [2] and greater than 2.0 mg in assay [3].

Regarding `Clc1ccc(C=Cn2cncn2)c(Cl)c1` [No. 3], in assay [1], the “LD 50 after 4 hours” value is given as 0.2% and the “LD 50 after 24 hours” value is on record as 0.05%. Besides, the “LD 50” value in assay [2] is greater than 5.0 mg.

For `c1ccc(CCCn2cncn2)cc1` [No. 5], the “LD 50 after 4 hours” value in assay [1] is greater than 0.2%. In assay [1], the “LD 50 after 24 hours” value is recorded as 0.05%. In addition, the entries for the “LD 50” value in assay [2], in assay [4] and in assay [5] were greater than 2.0 mg, greater than 2 mg and greater than 10 μg/fly, respectively.

For `Cc1ccc(Cn2cncn2)cc1` [No. 9], the results for the “LD 50” value in assay [2] and in assay [4] were greater than 2.0 mg and greater than 4 mg, respectively.

As for `CCc1ccc(Cn2cncn2)cc1` [No. 10], the figures for the “LD 50” value in assay [2] and in assay [4] were greater than 2.0 mg and greater than 2 mg, respectively.

In the case of `CC(c1ccccc1)n1cncn1` (centres unmarked) [No. 7], in assay [2], the “LD 50” value is given as greater than 2.0 mg.

In the case of `C=CCC1=C(C)C(OC(=O)C2C(C=C(C)C)C2(C)C)CC1=O` (mixture of isomers) [Allethrin, DL-2-allyl-3-methylcyclopenten-2-on-(1)-yl-(4)-DL-cis,trans-chrysanthemate, reference compound], the “LD 50” value in assay [2] is reported as 0.11 mg.

As to “2,5-diethylphenyl-N-methylcarbamate [Fenethcarb, reference compound]”, in assay [2], the “LD 50” value amounted to 0.45 mg.

`ClC(Cn1cncn1)c1ccccc1` (centres unmarked) [No. 1]: the “LD 50 after 4 hours” value in assay [1] is listed as 0.085%. For the same compound, the “LD 50 after 24 hours” value in assay [1] came out at 0.05%. For the same compound, the “LD 50” value is greater than 5.0 mg in assay [2]; greater than 2.0 mg in assay [3]; > 2 mg and > 1 mg in assay [4].

For the origin of these results see patent US4315017A, “Triazole derivatives” (priority 1978, dated 1982).
